Laboratory results from patent US20260034094A1, “COMPOSITIONS AND METHODS FOR INDUCING FERROPTOSIS” (Kojin Therapeutics, Inc., priority 2022, published 2026).

system: RKN cells; experiment: RKN cell profiling assay (cell viability, CellTiter-Glo); format: cell-based; conditions: 96 h, 96 h exposure, read-out: Cell Killing EC50
Experimental: RKN cells were suspended in assay medium (F-12 medium supplemented with 10% FBS and penicillin/streptomycin) and seeded at 1,000 cells per well (30 μL total volume) in opaque white 384-well plates (Corning). Cells were allowed to adhere for 24 h at 37° C. (95% humidity, 5% CO2) and then exposed to compounds disclosed herein for 72 h, or in the present case, 96 h. DMSO stock solutions of compounds were added to cells using a D300e Digital Dispenser (Tecan). The final DMSO concentration in each well was normalized to 0.5% (v/v) after compound treatment. Cell viability was measured using CellTiter-Glo (Promega). After incubation for 15 min at room temperature, luminescence was measured using a PHERAstar FSX microplate reader (BMG Labtech). Ferroptosis rescue experiments were performed as described previously using cells treated with ferrostatin-1 (fer-1, 1.5 μM) when seeding assay plates. Dose-response data were analyzed to determine EC50 values with GraphPad Prism 9 software using a four-parameter logistic equation or CDD Vault (Collaborative Drug Discovery) using the Levenberg-Marquardt algorithm.

| Structure (SMILES) | EC50 |
| --- | --- |
| CC(C)(C)CC[S@@](=N)(=O)CC[C@H](N)C(=O)Nc1cccnc1 (single isomer, unassigned) [Compound 102] | ≥ 1 mM |
| CC(C)(C)CC[S@](=N)(=O)CC[C@H](N)C(=O)Nc1cccnc1 (single isomer, unassigned) [Compound 103] | < 1 mM |

same assay, conditions: cell viability, read-out: Cell Killing EC50

| Structure (SMILES) | EC50 |
| --- | --- |
| N=S(=O)(CCC(c1ccc(-c2ccccc2Cl)cc1)C(F)(F)F)CC[C@H](N)C(=O)O (single isomer, unassigned) [Compound 218] | ≥ 1 mM |
| C[C@@](O)(CCS(=N)(=O)CC[C@H](N)C(=O)O)C(F)(F)F (single isomer, unassigned) [Compound 322] | < 1 mM |
| C[C@@](O)(CCS(=N)(=O)CC[C@H](N)C(=O)O)C(F)(F)F (single isomer, unassigned) [Compound 323] | ≥ 1 mM |
| C[C@](O)(CCS(=N)(=O)CC[C@H](N)C(=O)O)C(F)(F)F (single isomer, unassigned) [Compound 324] | < 1 mM |
| N=S(=O)(CCC(c1ccc(S(=O)(=O)Cc2ccccc2)cc1)C(F)(F)F)CC[C@H](N)C(=O)O (stereo partly shown) [Compound 291] | ≥ 1 mM |
| N=S(=O)(CCC(c1cccc2ccccc12)C(F)(F)F)CC[C@H](N)C(=O)O (stereo partly shown) [Compound 311] | < 1 mM |
| N=S(=O)(CCC(c1ccccn1)C(F)(F)F)CC[C@H](N)C(=O)O (stereo partly shown) [Compound 313] | < 1 mM |
| N=S(=O)(CCC(c1ccc(-c2ccccc2)cc1Cl)C(F)(F)F)CC[C@H](N)C(=O)O (stereo partly shown) [Compound 315] | ≥ 1 mM |
| N=S(=O)(CCC(c1ccc(Oc2ccccc2)cc1)C(F)(F)F)CC[C@H](N)C(=O)O (stereo partly shown) [Compound 316] | < 1 mM |
| N=S(=O)(CCC(c1ccc(-c2ccc(Cl)cc2Cl)cn1)C(F)(F)F)CC[C@H](N)C(=O)O (stereo partly shown) [Compound 317] | < 1 mM |
| N=S(=O)(CCC(c1ccc(Oc2ccc(Cl)cc2Cl)cc1)C(F)(F)F)CC[C@H](N)C(=O)O (stereo partly shown) [Compound 318] | < 1 mM |
| N=S(=O)(CCC(CO)C(F)(F)F)CC[C@H](N)C(=O)O (stereo partly shown) [Compound 320] | < 1 mM |
| N=S(=O)(CC[C@H](N)C(=O)O)CCC(O)(c1ccn(-c2ccc(Cl)cc2Cl)n1)C(F)(F)F (stereo partly shown) [Compound 336] | ≥ 1 mM |
| N=S(=O)(CC[C@H](N)C(=O)O)CCC(O)(c1cc(-c2ccc(Cl)cc2Cl)cs1)C(F)(F)F (stereo partly shown) [Compound 337] | < 1 mM |
| N=S(=O)(CC[C@H](N)C(=O)O)CCC(O)(c1ccc(OC2CCCCC2)cc1)C(F)(F)F (stereo partly shown) [Compound 339] | < 1 mM |
| N=S(=O)(CC[C@H](N)C(=O)O)CCC(O)([C@H]1CC[C@H](c2ccc(Cl)cc2Cl)CC1)C(F)(F)F (stereo partly shown) [Compound 340] | < 1 mM |
| N=S(=O)(CC[C@H](N)C(=O)O)CCC(O)([C@H]1CC[C@@H](c2ccc(Cl)cc2Cl)CC1)C(F)(F)F (stereo partly shown) [Compound 341] | < 1 mM |
| N=S(=O)(CC[C@H](N)C(=O)O)CCC(O)(c1ccc(Oc2ccc(Cl)cc2Cl)cc1)C(F)(F)F (stereo partly shown) [Compound 342] | < 1 mM |
| N=S(=O)(CC[C@H](N)C(=O)O)CCC(O)(c1cnc(-c2ccc(Cl)cc2Cl)nc1)C(F)(F)F (stereo partly shown) [Compound 366] | < 1 mM |
| N=S(=O)(CC[C@H](N)C(=O)O)CCC(O)(c1cnc(-c2ccc(Cl)cc2Cl)cn1)C(F)(F)F (stereo partly shown) [Compound 367] | < 1 mM |
| N=S(=O)(CC[C@H](N)C(=O)O)CCC(O)(c1ccc2ccccc2n1)C(F)(F)F (stereo partly shown) [Compound 373] | < 1 mM |
| N=S(=O)(CCC(c1ccc2[nH]nnc2c1)C(F)(F)F)CC[C@H](N)C(=O)O (stereo partly shown) [Compound 393] | ≥ 1 mM |

| Structure (SMILES) | EC50 |
| --- | --- |
| N=S(=O)(CCC(c1ccccc1O)C(F)(F)F)CC[C@H](N)C(=O)O (stereo partly shown) [Compound 397] | < 1 mM |
| N=S(=O)(CCC(c1ccc2[nH]cnc2c1)C(F)(F)F)CC[C@H](N)C(=O)O (stereo partly shown) [Compound 399] | ≥ 1 mM |
| N=S(=O)(CC[C@H](N)C(=O)O)CCC1(c2ccc(Oc3ccc(Cl)cc3Cl)cc2)CCC1 (stereo partly shown) [Compound 403] | ≥ 1 mM |
| N=S(=O)(CCC(N1CCN(c2ccc(Cl)cc2Cl)CC1)C(F)(F)F)CC[C@H](N)C(=O)O (stereo partly shown) [Compound 423] | < 1 mM |
| Cc1ccccc1-c1ccc(C(O)(CCS(=N)(=O)CC[C@H](N)C(=O)O)C(F)(F)F)cc1 (stereo partly shown) [Compound 429] | < 1 mM |
| Cc1cc(Cl)ccc1-c1ccc(C(O)(CCS(=N)(=O)CC[C@H](N)C(=O)O)C(F)(F)F)cc1 (stereo partly shown) [Compound 430] | < 1 mM |
| N=S(=O)(CC[C@H](N)C(=O)O)CCC(O)(c1ccc(-c2ccc(Cl)cc2)cc1)C(F)(F)F (stereo partly shown) [Compound 431] | < 1 mM |
| Cc1ccc(-c2ccc(C(O)(CCS(=N)(=O)CC[C@H](N)C(=O)O)C(F)(F)F)cc2)c(Cl)c1 (stereo partly shown) [Compound 432] | < 1 mM |
| Cn1ncc(-c2ccc(C(O)(CCS(=N)(=O)CC[C@H](N)C(=O)O)C(F)(F)F)cc2)cc1=O (stereo partly shown) [Compound 433] | ≥ 1 mM |
| N=S(=O)(CC[C@H](N)C(=O)O)CCC(O)(c1cccc(-c2ccccc2)c1)C(F)(F)F (stereo partly shown) [Compound 435] | ≥ 1 mM |
| Cc1ccc(-c2ccc(C(O)(CCS(=N)(=O)CC[C@H](N)C(=O)O)C(F)(F)F)cc2)c(F)c1 (stereo partly shown) [Compound 437] | < 1 mM |
| Cc1cc(C(O)(CCS(=N)(=O)CC[C@H](N)C(=O)O)C(F)(F)F)ccc1-c1ccc(Cl)cc1Cl (stereo partly shown) [Compound 443] | < 1 mM |
| N=S(=O)(CC[C@H](N)C(=O)O)CCC(O)(c1ccc(-c2ccc(Cl)cc2Cl)cn1)C(F)(F)F (stereo partly shown) [Compound 465] | ≥ 1 mM |
| N=S(=O)(CC[C@H](N)C(=O)O)CCC(O)(c1ccc(-c2ccc(Cl)cc2Cl)cn1)C(F)(F)F (stereo partly shown) [Compound 466] | < 1 mM |
| N=S(=O)(CC[C@H](N)C(=O)O)CCC(O)(c1ncc(-c2ccccc2)cn1)C(F)(F)F (stereo partly shown) [Compound 467] | < 1 mM |
| N=S(=O)(CC[C@H](N)C(=O)O)CCC(O)(c1ncc(-c2ccc(Cl)cc2Cl)cn1)C(F)(F)F (stereo partly shown) [Compound 468] | < 1 mM |
| N[C@@H](CCS(=O)(=O)CCC(O)(c1ncc(-c2ccc(Cl)cc2Cl)cn1)C(F)(F)F)C(=O)O (stereo partly shown) [Compound 470] | ≥ 1 mM |
| Cc1ccccc1-c1ccc(C(O)(CCS(=N)(=O)CC[C@H](N)C(=O)O)C(F)(F)F)nc1 (stereo partly shown) [Compound 471] | < 1 mM |
| Cn1cc(-c2ccc(C(O)(CCS(=N)(=O)CC[C@H](N)C(=O)O)C(F)(F)F)nc2)cn1 (stereo partly shown) [Compound 472] | ≥ 1 mM |
| Cc1cc(Cl)ccc1-c1cnc(C(O)(CCS(=N)(=O)CC[C@H](N)C(=O)O)C(F)(F)F)nc1 (stereo partly shown) [Compound 474] | < 1 mM |
| N=S(=O)(CC[C@H](N)C(=O)O)CCC(O)(c1ccc(C2CCCCC2)cn1)C(F)(F)F (stereo partly shown) [Compound 476] | < 1 mM |
| N=S(=O)(CC[C@H](N)C(=O)O)CCC(O)(c1ccc(-c2ccco2)cn1)C(F)(F)F (stereo partly shown) [Compound 481] | < 1 mM |

target: human recombinant GCL (Homo sapiens (Human), UniProt P48506); experiment: GCL enzyme profiling assay (ADP-Glo luminescence); format: biochemical; conditions: human recombinant GCL 5 nM, 1 h preincubation with ATP; read-out: GCL IC50
Sequence (P48506 whole entry): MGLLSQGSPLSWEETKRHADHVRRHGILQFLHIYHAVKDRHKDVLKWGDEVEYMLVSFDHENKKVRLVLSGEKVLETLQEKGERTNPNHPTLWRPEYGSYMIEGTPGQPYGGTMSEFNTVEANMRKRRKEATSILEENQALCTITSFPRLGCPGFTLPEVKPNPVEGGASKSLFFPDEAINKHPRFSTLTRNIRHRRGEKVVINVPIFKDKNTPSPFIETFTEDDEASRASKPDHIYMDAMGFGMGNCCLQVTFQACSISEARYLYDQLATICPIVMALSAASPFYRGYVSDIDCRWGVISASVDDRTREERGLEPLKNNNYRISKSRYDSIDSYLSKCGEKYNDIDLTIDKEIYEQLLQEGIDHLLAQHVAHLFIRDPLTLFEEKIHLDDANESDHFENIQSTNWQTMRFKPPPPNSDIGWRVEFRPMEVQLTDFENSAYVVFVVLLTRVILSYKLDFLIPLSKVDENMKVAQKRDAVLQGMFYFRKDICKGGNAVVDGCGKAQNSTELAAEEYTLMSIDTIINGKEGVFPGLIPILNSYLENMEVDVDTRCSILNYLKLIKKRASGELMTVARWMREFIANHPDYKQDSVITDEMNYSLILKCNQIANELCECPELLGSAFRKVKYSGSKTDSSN
Experimental: The GCL enzyme assay was run in 50 mM HEPES, pH 7.5, containing 150 mM NaCl, 30 mM MgCl2, 0.5 mM EDTA, 1 mM DTT, 0.1 mg/mL BSA, and 0.02% or in the present case 0.2% F-127 in a total assay volume of 10 μL or 10 mL. Compound in pure DMSO was stamped in assay plates (Greiner black 384-well) or appropriate containers using a D300e digital dispenser (TECAN) and the final DMSO concentration was normalized to 1%. A 5 mL, or in the present case, 5 μL mixture of human recombinant GCL (final concentration: 5 nM) and ATP (final concentration: 0.6 mM) was added and the solution was incubated at room temperature (22° C.) for 1 h. The GCL enzyme reaction was initiated by addition of a 5 μL mixture of mono g-glutamate or in the present example, monosodium glutamate (final concentration: 1 mM) and a-aminobutyrate or α-aminobutyrate (final concentration: 1.2 mM). The reaction was stopped after 1 h or in the present case, 2 h by addition of 5 mL, or in the present case, 5 μL ADP GLO Reagent (Promega). The resulting solution was incubated for 2 h at room temperature. This was then followed by addition of 5 mL, or in the present case, 5 μL ADP GLO Detection. After incubation at room temperature for 30 min, the plates were read on a plate reader (PheraStar) using a luminescence protocol to quantify the GCL enzyme activity from each reaction solution. The data was analyzed using a four-parameter logistic equation to calculate IC50.

| Structure (SMILES) | IC50 |
| --- | --- |
| CC(C)(C)CC[S@@](=N)(=O)CC[C@H](N)C(=O)Nc1cccnc1 (single isomer, unassigned) [Compound 102] | > 2 mM |
| CC(C)(C)CC[S@](=N)(=O)CC[C@H](N)C(=O)Nc1cccnc1 (single isomer, unassigned) [Compound 103] | > 2 mM |
| N=S(=O)(CC[C@H](N)C(=O)O)CCn1ccnc1 (stereo partly shown) [Compound 7] | > 2 mM |
| Cc1ccccc1OCCS(=N)(=O)CC[C@H](N)C(=O)O (stereo partly shown) [Compound 14] | 0.02 to 2 mM |
| N=S(=O)(CCCc1cn[nH]c1)CC[C@H](N)C(=O)O (stereo partly drawn) [Compound 50, (2S)-4-(3-(1H-pyrazol-4-yl)propylsulfonimidoyl)-2-aminobutanoic acid] | 0.02 to 2 mM |
| CC(COC(=O)c1ccccc1)OC(=O)[C@@H](N)CCS(=N)(=O)CCC(C)(C)C (stereo partly shown) [Compound 98] | 0.02 to 2 mM |

same assay, conditions: human recombinant GCL, ADP-Glo; read-out: GCL IC50

| Structure (SMILES) | IC50 |
| --- | --- |
| N=S(=O)(CCC(c1ccc(-c2ccccc2Cl)cc1)C(F)(F)F)CC[C@H](N)C(=O)O (single isomer, unassigned) [Compound 218] | 0.02 to 2 mM |
| C[C@@](O)(CCS(=N)(=O)CC[C@H](N)C(=O)O)C(F)(F)F (single isomer, unassigned) [Compound 322] | ≤ 0.02 mM |
| C[C@@](O)(CCS(=N)(=O)CC[C@H](N)C(=O)O)C(F)(F)F (single isomer, unassigned) [Compound 323] | > 2 mM |
| C[C@](O)(CCS(=N)(=O)CC[C@H](N)C(=O)O)C(F)(F)F (single isomer, unassigned) [Compound 324] | ≤ 0.02 mM |
| N=S(=O)(CCC1CCO1)CC[C@H](N)C(=O)O (stereo partly shown) [Compound 304] | 0.02 to 2 mM |
| C#CCNC(=O)[C@@H](N)CCS(=N)(=O)CCCC (stereo partly shown) [compound 493] | > 2 mM |
